# Results reported in patent US20140088006A1, “Stem Cell Mobilization and Tissue Repair and Regeneration” (Wellstat Therapeutics Corporation, priority 2011, published 2014).
# “And” between values parts separate entries of the source, which are not always exact repeats. Equal entries are not always repeated. “Also recorded” adds a separate entry of the source. No end group written: not given here.
# Legend:
# [1] = tested on: human umbilical cord blood CD34+ cells; assay: Transwell migration of CD34+ cells toward SDF-1α; format: cell-based
# Protocol: CD34^+ cell migration toward 100 ng/mL SDF-1α in a Corning Transwell device (24 well format, 5 μm pore size, polycarbonate membrane) was studied with and without Compound X and in the presence or absence of either anti-CXCR4 antibody or the CXCR4 antagonist AMD3100.
# The CD34^+ population of cells from human umbilical cord blood was obtained from Lonza, defrosted and expanded ex vivo with cytokine cocktail for 6 days according to standard procedures. Briefly, 10 wells of two 12 well dishes were seeded at a density of 8×10^4 cells per well in 2 mL of CellGenix serum free growth medium (SCGM). Cells were allowed to expand in a 37° C. incubator (5% CO2, 86% RH) for 6 days. During the expansion, the 10 wells of one of the two plates received treatments of Compound X to a final concentration of 5 ng/mL (10 μL from freshly prepared 1 μg/mL stock in SCGM) at 24 hours and 72 hours after initiation of the culture.
# 3 hours prior to the start of the migration assay, both control and Compound X expanded cells were pulsed with either 0, 5 ng/mL or 5 μg/mL Compound X. Migration assay was performed according to the method described (Tavor et al. 2005). Cells were centrifuged for 5 minutes at 1100 RPM and resuspended at a density of 2×10^6 cells/mL in CellGenix SCGM serum free medium containing 1% Fraction V BSA either in the presence or absence of 5 ng/mL or 5 μg/mL Compound X for 3 hours. The feeder tray (bottom) was prepared with 600 μL of serum free SCGM supplemented with 1% BSA in the presence or absence of SDF-1α. All treatments were conducted in triplicate. The wells of the migration chamber (top) received 100 μL of cells from the 2×10^6 cells/mL suspensions, preincubated with 5 ng/mL or 5 μg/mL Compound X or Control. All treatments were conducted in triplicates. The plates were placed in a 37° C. incubator (5% CO2, 86% RH) and cells were allowed to migrate for 4 hours. […]
# The cells were thawed at room temperature. […] 150 μL of the resulting cell lysates were transferred to a new 96 well plate and the fluorescence was read on a […] SpectraMax M2 fluorimeter (ex 485, em 538). […]
# [2] = Blood glucose before and 7 weeks after treatment in wound healing study; format: in vivo, db/db mice; settings: 4 days i.v. treatment course; 7 weeks after the treatment
# Protocol: Note, that mice were taken for the wound healing experiment when their glucose level was high; baseline glucose was measured by glucometer from tail bleed one day before the wound healing experiment next glucose measurement was taken at the end of the study, 7 weeks after the treatment with intravenous injections of Compound X or Saline.
# [3] = Glucose level in db/db mice treated for 5 weeks; format: in vivo; settings: for Glucose level in peripheral blood (nonfasting): 5 mg/kg s.c./i.v. for 5 weeks, individual mice; for Glucose level in peripheral blood, group mean: 5 mg/kg, high values set to 600 mg/dL
# Protocol: Homozygous Leptin receptor-deficient diabetic db/db male mice—BKS.Cg-Dock7m+/+Leprdb/J (Jackson Laboratories, stock #000642) become obese at 3-4 weeks of age. Elevation of plasma insulin usually occurs at 10-14 days and elevation of blood glucose at 6-8 weeks of age. We examined the effects of Compound X on the onset of hyperglycemia in db/db mice. Continuous Compound X treatments were performed during 5 weeks.
# At day 0, homozygous 7-week-old female db/db mice were divided into 2 experimental groups (n=10); both groups received subcutaneous injections for 5 consecutive days: Group 1 received 0.9% saline and group 2 received 5 mg/kg Compound X. The following week mice received intravenous injections for 4 consecutive days. The next two weeks mice received subcutaneous injections 3 times per week and the last week of treatment was given intravenously 3 times per week.
# Nonfasting blood glucose levels were measured weekly from tail bleeds with a handheld glucometer. Animal body weights were taken throughout the course of the study.
# At the end of experiment, serum from blood was obtained from the retro-orbital sinus after an overnight fast.
sequence,measurement,setting,value
"FPHFDLSHGSAQV [Compound X, tridecapeptide that acts on stem cells]",interference with the effect of AMD3100 or anti CXCR4 antibody on migration,[1]; 5 ng/mL Compound X,did not interfere
same,CD34+ cell Transwell migration toward SDF-1α,"[1]; cells expanded with 5 ng/mL and/or pulsed 3 hours with Compound X, 100 ng/mL SDF-1α, 4 hours",no significant difference; also recorded: had no effect
same,glucose level in blood,[2],decreased glucose level
same,Glucose level in peripheral blood (nonfasting),[3]; Week 1,160 mg/dL and 121 mg/dL and 122 mg/dL and 235 mg/dL and 117 mg/dL and 178 mg/dL and 248 mg/dL and 119 mg/dL and 181 mg/dL and 194 mg/dL
same,Glucose level in peripheral blood (nonfasting),[3]; Week 2,481 mg/dL and 377 mg/dL and 177 mg/dL and 472 mg/dL and 273 mg/dL and 452 mg/dL and 500 mg/dL and 189 mg/dL and 502 mg/dL and 430 mg/dL
same,Glucose level in peripheral blood (nonfasting),[3]; Week 3,"541 mg/dL (2×) and 447 mg/dL and 271 mg/dL and HI (High/Hi = ≧600 mg/dL, the maximum possible glucometer reading) and 546 mg/dL and 496 mg/dL and 474 mg/dL and 267 mg/dL and 463 mg/dL"
same,Glucose level in peripheral blood (nonfasting),[3]; Week 4,"398 mg/dL and 416 mg/dL and 206 mg/dL and 599 mg/dL and 440 mg/dL and 458 mg/dL and 591 mg/dL and 257 mg/dL and HI (High/Hi = ≧600 mg/dL, the maximum possible glucometer reading) and 549 mg/dL"
same,Glucose level in peripheral blood (nonfasting),[3]; Week 5,"481 mg/dL and 443 mg/dL and 256 mg/dL and 527 mg/dL and 525 mg/dL and 582 mg/dL and 588 mg/dL and 467 mg/dL and HI (High/Hi = ≧600 mg/dL, the maximum possible glucometer reading) (2×)"
same,Glucose level in peripheral blood (nonfasting),[3]; Week 6,"400 mg/dL and 541 mg/dL and 265 mg/dL and 537 mg/dL and 576 mg/dL and HI (High/Hi = ≧600 mg/dL, the maximum possible glucometer reading) (4×) and 457 mg/dL"
same,"Glucose level in peripheral blood, group mean",[3]; Week 1,168 ± 15 mg/dL
same,"Glucose level in peripheral blood, group mean",[3]; Week 2,385 ± 40 mg/dL
same,"Glucose level in peripheral blood, group mean",[3]; Week 3,465 ± 36 mg/dL
same,"Glucose level in peripheral blood, group mean",[3]; Week 4,451 ± 44 mg/dL
same,"Glucose level in peripheral blood, group mean",[3]; Week 5,506 ± 33 mg/dL
same,"Glucose level in peripheral blood, group mean",[3]; Week 6,517 ± 35 mg/dL
same,nonfasting glucose level compared to Saline control,[3]; at all timepoints,decreased glucose level
same,mice with lower than 200 mg/dL fasting serum glucose,[3]; end of the 5-week study,2 mice
same,mice with overnight fasting serum glucose <300 mg/dL,"[3]; end of the 5-week study, vehicle 3/10",7/10
